Experimental findings from patent US11814680B2, “Biomarkers for detecting senescent cells” (Universität für Bodenkultur Wien, priority 2017, dated 2023) are described below.

“Also recorded” adds a separate entry of the source. Marks after values point to notes of the source that are not given here.

Common to all, as to assay type: in vivo, mouse
Series [1] has as its system p16-3MR mice. The series can be described thus: Next generation sequencing of circulating miRNAs in serum after induction (dox) and removal (GCV) of senescent cells. Particulars: NGS; for serum level after rescue with dox+GCV (removal of senescent cells) / serum level in dox-treated animals compared to PBS controls: in words; for log fold change: p16-3MR mice; for avg TPM dox: dox-treated p16-3MR mice. As for the experimental part:
p16-3MR (Demaria et al, 2014, Developmental Cell 31:722-733) mice were bred in house and maintained in the AALAC-accredited Buck Institute for Research on Aging (Novato, Calif.) animal facility. 10 to 12-week-old p16-3MR male mice were used for experiments. Mice were divided in 4 groups and each group consisted of 3 animals. In group A, control mice were injected with PBS. In group B, mice were treated with Ganciclovir (GCV) (Sigma-Aldrich) dissolved in PBS for 5 consecutive days. In group C, mice were treated with one dose of Doxorubicine hydrochloride (Sigma-Aldrich) dissolved in PBS. In group D, mice were first treated with Doxorubicine and then treated 10 days later with GCV. Mice were intraperitoneally injected with one dose of 10 mg/kg of Doxorubicine hydrochloride, and GCV was administered daily by intraperitoneal injections for 5 consecutive days at concentration of 25 mg/kg in PBS. 4 days after the last GCV dose, animals were euthanized with CO2 and blood was withdrawn immediately. Blood was then incubated for 30 min at room temperature and centrifuged at 3400×g for 10 min. Serum was carefully collected in a sterile tube without disturbing the cell pellet and stored at −80° C. for further experiments.
Total RNA extraction was performed from 200 μl of serum using the Qiagen miRNeasy™ extraction kit (Qiagen, Germany). RNA yield was quality checked for homogenous extraction efficiency and hemolysis on the basis qPCR amplification of spiked-in as well as hemolysis-responsive RNAs (Blondal et al). In total 2 μl total RNA were used for library preparation using the CleanTag library preparation protocol (Trilink Biotechnologies, USA), which uses chemically modified adapters to prevent adapter self-ligation. Library quality and yield was controlled using Bioanalyzer DNA-1000 chips. Due to the high purity, libraries were not purified prior to sequencing on an ILLUMINA™ NextSeq 500 sequencing system with 50 bp single-end reads.
Next-generation sequencing was performed at Exiqon (Denmark). Raw reads were quality filtered for a Q-score of 30 or higher. Adapter sequences were trimmed and the remaining reads were mapped against the mouse genome, miRBase, non-coding RNA databases and classified as either microRNAs, small RNAs, genome mapping RNAs or outmapped RNA sequences. Read counts were added for all microRNA isoforms (isomiRs) and normalized by dividing the microRNA read count by the total number of mapped reads and multiplying by 1 million (Tags Per Million). Tags per millions were used for data mining (PCA and hierarchical clustering) using the web-tool clustvis (Metsalu and Vilo 2015).
For differential expression analysis, the EdgeR statistical software package was used. For normalization, the trimmed mean of M-values method was used based on log-fold and absolute gene wise changes in expression levels between samples (TMM normalization). […] Additionally, the normalization step offsets under-sampling effects (due to highly expressed microRNAs dominating the read set) by identifying scaling factors that minimize log-fold changes between samples across the majority of microRNAs.
For exploratory data analysis we applied principal component analysis (PCA) to the dataset of 50 most variable microRNAs according to the coefficient of variation. The PCA plot clearly indicates an effect of […] (dox) treatment on circulating microRNA levels in p16-3MR mice compared to the PBS treated control animals (FIG. 2). […] Analysis of differentially circulating miRNAs was focused on changes between dox treated versus control (PBS) to identify those miRNAs that are modulated by induction of senescence, as well as dox-GCV vs dox, in order to identify miRNAs that change after removal of senescent cells. A p-value threshold of <0.05 without correction for multiple testing was used. […] GCV-treated animals are supposed to have a reduced number of senescent cells compared to PBS due to forced apoptosis. […]

Series [2] concerns p16-3MR mice. The series can be described thus: ROC analysis of discriminatory power of circulating microRNAs. The conditions noted are these: serum, RT-qPCR, symbol after the number = significance; for ROC Analysis AUC Senescence: DOX vs PBS; for ROC Analysis AUC Senolytic Treatment: DOX/GCV vs DOX. As for the experimental part: (§1) Statistical analysis was performed using Medcalc (version 18.2.1). Normal distribution was assessed using D'Agostino-Pearson test, where normality was accepted at p>0.05. One-way ANOVA together together with Student-Newman-Keuls test for all pairwise comparisons (post-hoc tests) was used to identify significant changes between groups (p<0.05). To assess the discriminatory power of individual microRNAs, receiver operating characteristic (ROC) analysis was applied. ROC curves were plotted using sensitivity (y-axis) and 1-specificity (x-axis) and the area under the ROC curve (AUC) was calculated. MicroRNAs with AUC-values of >0.7 were considered as good discriminators/biomarkers. MicroRNAs with AUC-values >0.8 were considered very good discriminators/biomarkers.
In order to assess the diagnostic power of circulating microRNAs for the exposure with senescence inducing substances (DOX) as well as the efficacy of senolytic treatment, ROC analysis was performed and the area-under-the-curve (AUC) was calculated. […] Table 23 below summarizes AUC values as well as 95% confidence intervals for 24 selected circulating microRNAs.
For orientation: Real-time PCR tracks product formation cycle by cycle.

The test system of series [3] is p16-3MR mice. The series can be described thus: RT-qPCR verification of serum circulating microRNA changes, one-way ANOVA. Particulars: for One-way ANOVA Senolytic Treatment (DOX/GCV) / One-way ANOVA Senescence (DOX vs PBS): serum; for One-way ANOVA Senolytic Treatment (DOX/GCV): DOX/GCV compared to DOX; for One-way ANOVA Senescence (DOX vs PBS): n=8 per group, male and female mice. As for the experimental part: p16-3MR (Demaria et al, 2014, Developmental Cell 31:722-733) mice were bred in house and maintained in the AALAC-accredited Buck Institute for Research on Aging (Novato, Calif.) animal facility. 10 to 12-week-old p16-3MR […] mice were used for experiments. Mice were divided in 4 groups and each group consisted of 8 animals, 5 female, and 3 male, respectively. In group A, control mice were injected with PBS. In group B, mice were treated with Ganciclovir (GCV) (Sigma-Aldrich) dissolved in PBS for 5 consecutive days. In group C, mice were treated with one dose of Doxorubicine hydrochloride (Sigma-Aldrich) dissolved in PBS. In group D, mice were first treated with Doxorubicine and then treated 10 days later with GCV. Mice were intraperitoneally injected with one dose of 10 mg/kg of Doxorubicine hydrochloride, and GCV was administered daily by intraperitoneal injections for 5 consecutive days at concentration of 25 mg/kg in PBS. 4 days after the last GCV dose, animals were euthanized with CO2 and blood was withdrawn immediately. Blood was then incubated for 30 min at room temperature and centrifuged at 3400×g for 10 min. Serum was carefully collected in a sterile tube without disturbing the cell pellet and stored at −80° C. for further experiments.
Total RNA extraction was performed from 200 μl of serum using the Qiagen miRNeasy extraction kit (Qiagen, Germany). RNA yield was quality checked for homogenous extraction efficiency and hemolysis on the basis qPCR amplification of spiked-in as well as hemolysis-responsive RNAs (Blondal et al). In total 2 μl total RNA were used for reverse transcription using the Exiqon Universal RT kit II (Exiqon, Denmark). The obtained cDNA samples were pre-diluted 1:40 and subsequently mixed with SYBR Green® Mix (Exiqon, Denmark) to achieve a 1:100 dilution. The mix was distributed to primer-coated 384-well plates containing dried primer pairs for 96 selected microRNA or quality control assays. QPCR amplification was performed on a Roche LightCycler 480 II, using the manufacturer's recommendation for annealing, extension and denaturation.
Raw Cq-values were computed using the 2nd derivative method. Melting curves were checked for peaks to ensure specificity of the amplification reactions. Cq-values were subsequently normalized using Spike-In controls as references, to reduce technical noise in the data.
as §1

For the substance “miR-27a-3p: circulating microRNA biomarker, SEQ ID No. 5 (UUCACAGUGGCUAAGUUCCGC; expressed or natural sequence; listed as Homo sapiens)”, in the series with p16-3MR mice [1], the “serum level after rescue with dox+GCV (removal of senescent cells)” value (“serum level after rescue with dox+GCV” below) is recorded as “decreased” and the “serum level in dox-treated animals compared to PBS controls” value is recorded as “higher; also recorded: increased”. Besides, the log fold change in the series with p16-3MR mice [1] (serum miRNA, dox vs pbs) came out at 1.08. Moreover, the “avg TPM dox” value with p16-3MR mice [1] (serum miRNA) was 16.50 TPM. In addition, in the series with p16-3MR mice [2], the “ROC Analysis AUC Senescence” value was 0.664° and the “ROC Analysis AUC Senolytic Treatment” value is reported as 0.719+. For the same substance, the “change of serum level following senolytic treatment (DOX/GCV compared to DOX)” value in the series on p16-3MR mice [3] (p<0.05, in words) is “significantly changed”. In the series on p16-3MR mice [3], the “One-way ANOVA Senolytic Treatment (DOX/GCV)” value was “* (significant p < 0.05)” and the “One-way ANOVA Senescence (DOX vs PBS)” value was “○”.
With “miR-34a-5p: circulating microRNA biomarker, SEQ ID No. 1 (UGGCAGUGUCUUAGCUGGUUGU; expressed or natural sequence; listed as Homo sapiens)”, in the series with p16-3MR mice [1], the “serum level after rescue with dox+GCV” value is “decreased” and the “serum level in dox-treated animals compared to PBS controls” value is listed as “higher; also recorded: increased”. Besides, the “serum level after rescue with dox+GCV” value in the series with p16-3MR mice [1] (listed as miR-34a) is listed as “significant decline”. Also, the “avg TPM GCV” value with p16-3MR mice [1] (serum miRNA, comparison group of Table 17, printed GCV) was found to be 8.00 TPM. For the same substance, the “avg TPM dox + GCV” value in the series with p16-3MR mice [1] (serum miRNA, dox + GCV treated p16-3MR mice) is 2.33 TPM. The log fold change in the series on p16-3MR mice [1] (serum miRNA, dox + gcv vs gcv (so in the source)) is given as −1.34. In the series on p16-3MR mice [1] (serum miRNA, dox vs pbs), the log fold change came out at 1.13. In addition, the “avg TPM dox” value in the series with p16-3MR mice [1] (serum miRNA) amounted to 8.00 TPM. In the series on p16-3MR mice [2], the “ROC Analysis AUC Senescence” value is given as 1.000* and the “ROC Analysis AUC Senolytic Treatment” value turned out to be 0.672°. The “regulation in serum after exposure to DOX compared to PBS” value in the series with p16-3MR mice [3] (independent of gender, in words) was “significantly (up- or down-regulated)”. Further, in the series on p16-3MR mice [3], the “One-way ANOVA Senolytic Treatment (DOX/GCV)” value is “○” and the “One-way ANOVA Senescence (DOX vs PBS)” value is “* (significant p < 0.05)”.
